In BindingDB's records for doi:10.1016/j.bmcl.2005.05.116 (Merck Frosst Canada, 2005) one finds IC50 data, which are given here for twelve compounds.

What all share (test): Caspase Inhibition Assay
The target of experiment [1] is T1, Caspase-1 (Homo sapiens, UniProt P29466).
T1 sequence (P29466 whole entry): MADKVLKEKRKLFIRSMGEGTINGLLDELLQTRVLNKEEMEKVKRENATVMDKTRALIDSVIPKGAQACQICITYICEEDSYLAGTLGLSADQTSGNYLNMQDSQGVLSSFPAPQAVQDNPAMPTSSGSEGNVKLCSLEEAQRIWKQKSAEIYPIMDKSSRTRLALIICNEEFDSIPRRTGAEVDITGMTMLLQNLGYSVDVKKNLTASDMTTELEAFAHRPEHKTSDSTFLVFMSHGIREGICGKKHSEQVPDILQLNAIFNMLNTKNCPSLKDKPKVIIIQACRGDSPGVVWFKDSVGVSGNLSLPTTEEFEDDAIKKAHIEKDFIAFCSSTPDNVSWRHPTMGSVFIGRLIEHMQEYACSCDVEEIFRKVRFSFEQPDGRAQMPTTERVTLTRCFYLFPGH
As for the experimental part:
(§1) The substrate peptides terminating in AMC are processed by caspases with or without inhibitors, and the accumulation of AMC was assessed with a Cytofluor fluorescent plate reader at excitation and emission wavelengths of 380 and 460 nm. Compounds were tested, and full IC50 curves were run for all compounds expressing measurable inhibitory activity.

The target in experiment [2] is Caspase-8 (Homo sapiens, UniProt Q14790). As for the experimental part:
as §1

Experiment [3] has as its target T2, Caspase-3 (Homo sapiens, UniProt P42574).
T2 sequence (P42574 whole entry): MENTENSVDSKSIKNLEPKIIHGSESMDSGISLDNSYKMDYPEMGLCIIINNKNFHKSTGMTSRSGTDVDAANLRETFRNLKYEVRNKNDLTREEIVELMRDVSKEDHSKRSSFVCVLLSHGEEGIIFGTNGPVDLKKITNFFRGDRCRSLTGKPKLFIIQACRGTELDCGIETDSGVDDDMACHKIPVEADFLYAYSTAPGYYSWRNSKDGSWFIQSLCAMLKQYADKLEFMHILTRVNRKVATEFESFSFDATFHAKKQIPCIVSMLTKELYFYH
As for the experimental part:
as §1

The target in experiment [4] is T3, Caspase-7 (Homo sapiens, UniProt P55210).
T3 sequence (P55210 whole entry): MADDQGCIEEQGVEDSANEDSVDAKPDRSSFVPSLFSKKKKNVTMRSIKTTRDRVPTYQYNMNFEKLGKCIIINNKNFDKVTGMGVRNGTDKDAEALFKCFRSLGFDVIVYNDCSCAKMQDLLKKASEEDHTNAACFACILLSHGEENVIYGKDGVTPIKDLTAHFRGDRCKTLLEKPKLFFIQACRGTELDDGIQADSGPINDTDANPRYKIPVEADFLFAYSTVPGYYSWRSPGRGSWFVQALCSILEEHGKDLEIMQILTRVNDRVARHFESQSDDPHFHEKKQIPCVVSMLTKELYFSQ
As for the experimental part: as §1

Chain of Caspase-8 (Q14790 217-374 limits assumed): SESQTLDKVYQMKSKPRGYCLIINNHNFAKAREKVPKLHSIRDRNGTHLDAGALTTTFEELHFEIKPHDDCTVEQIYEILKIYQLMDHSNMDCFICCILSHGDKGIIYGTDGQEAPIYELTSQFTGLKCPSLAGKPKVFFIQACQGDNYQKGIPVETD
Chain of Caspase-8 (Q14790 385-479 limits assumed): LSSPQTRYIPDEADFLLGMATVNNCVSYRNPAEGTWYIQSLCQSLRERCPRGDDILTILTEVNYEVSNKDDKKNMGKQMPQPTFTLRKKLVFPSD

As a reminder, the IC50 is the concentration that gives 50% inhibition. High values mean weaker potency, low ones greater potency. In the case of `C#CC[C@H](C(=O)N[C@H](C(=O)N[C@@H](CC(=O)O)C(=O)CSCc1ccccc1)C(C)C)c1cc(Br)ccc1OC` [(3S)-5-(benzylsulfanyl)-3-[(2S)-2-[(2S)-2-(5-bromo-2-methoxyphenyl)pent-4-ynamido]-3-methylbutanamido]-4-oxopentanoic acid], the IC50 was more than 10000 nM in experiment [1]; 4470 nM in experiment [2]; 341 nM in experiment [3] (pH 7, 37 °C); 3620 nM in experiment [4].
As to `COc1ccc(Br)cc1C(O)C(=O)N[C@H](C(=O)N[C@@H](CC(=O)O)C(=O)CSCc1ccccc1)C(C)C` (stereo partly drawn) [(3S)-5-(benzylsulfanyl)-3-[(2S)-2-[2-(5-bromo-2-methoxyphenyl)-2-hydroxyacetamido]-3-methylbutanamido]-4-oxopentanoic acid], the IC50 in experiment [1] stood at 1540 nM; in experiment [2], 104 nM; in experiment [3] it was 5 nM; in experiment [4] it was 91 nM.
With `COc1ccc(OC)c(C(O)C(=O)N[C@H](C(=O)N[C@@H](CC(=O)O)C(=O)CSCc2ccccc2)C(C)C)c1` (stereo partly drawn) [(3S)-5-(benzylsulfanyl)-3-[(2S)-2-[2-(2,5-dimethoxyphenyl)-2-hydroxyacetamido]-3-methylbutanamido]-4-oxopentanoic acid], the IC50 in experiment [1] was found to be 4490 nM; in experiment [2], 975 nM; in experiment [3] it was 29 nM; in experiment [4], 545 nM.
Regarding `CCC[C@H](C(=O)N[C@H](C(=O)N[C@@H](CC(=O)O)C(=O)CSCc1ccccc1)C(C)C)c1cc(Br)ccc1OC` [(3S)-5-(benzylsulfanyl)-3-[(2S)-2-[(2S)-2-(5-bromo-2-methoxyphenyl)pentanamido]-3-methylbutanamido]-4-oxopentanoic acid], the 50% inhibitory concentration (IC50) in experiment [1] was more than 10000 nM; in experiment [2] it was 4500 nM; in experiment [3] (pH 7, 37 °C) it was 274 nM; in experiment [4] it was 5300 nM.
As for `COc1ccc(-c2nc(C)no2)cc1C(O)C(=O)N[C@H](C(=O)N[C@@H](CC(=O)O)C(=O)CSCc1ccccc1)C(C)C` (stereo partly drawn) [(3S)-5-(benzylsulfanyl)-3-[(2S)-2-{2-hydroxy-2-[2-methoxy-5-(3-methyl-1,2,4-oxadiazol-5-yl)phenyl]acetamido}-3-methylbutanamido]-4-oxopentanoic acid], the IC50 in experiment [1] came to 2460 nM; in experiment [2] it was 280 nM; in experiment [3], 12 nM; in experiment [4], 63 nM.
For `COc1ccc(Br)cc1[C@H](Cc1ccccc1)C(=O)N[C@H](C(=O)N[C@@H](CC(=O)O)C(=O)CSCc1ccccc1)C(C)C` [(3S)-5-(benzylsulfanyl)-3-[(2S)-2-[(2S)-2-(5-bromo-2-methoxyphenyl)-3-phenylpropanamido]-3-methylbutanamido]-4-oxopentanoic acid], the IC50 turned out to be 5810 nM in experiment [1]; 5830 nM in experiment [2]; 181 nM in experiment [3] (pH 7, 37 °C); 4200 nM in experiment [4].
In the case of `COc1ccc(Br)cc1[C@@H](C(=O)N[C@H](C(=O)N[C@@H](CC(=O)O)C(=O)CSCc1ccccc1)C(C)C)C(C)C` [(3S)-5-(benzylsulfanyl)-3-[(2S)-2-[(2S)-2-(5-bromo-2-methoxyphenyl)-3-methylbutanamido]-3-methylbutanamido]-4-oxopentanoic acid], the IC50 in experiment [1] was more than 10000 nM; in experiment [2], 1320 nM; in experiment [3] (pH 7, 37 °C), 9440 nM; in experiment [4], more than 10000 nM.
As to `COc1ccc(I)cc1C(O)C(=O)N[C@H](C(=O)N[C@@H](CC(=O)O)C(=O)CSCc1ccccc1)C(C)C` (stereo partly drawn) [(3S)-5-(benzylsulfanyl)-3-[(2S)-2-[2-hydroxy-2-(5-iodo-2-methoxyphenyl)acetamido]-3-methylbutanamido]-4-oxopentanoic acid], the IC50 amounted to 675 nM in experiment [1], 98 nM in experiment [2], 16 nM in experiment [3] and 135 nM in experiment [4].
As to `C=CC[C@H](C(=O)N[C@H](C(=O)N[C@@H](CC(=O)O)C(=O)CSCc1ccccc1)C(C)C)c1cc(Br)ccc1OC` [(3S)-5-(benzylsulfanyl)-3-[(2S)-2-[(2S)-2-(5-bromo-2-methoxyphenyl)pent-4-enamido]-3-methylbutanamido]-4-oxopentanoic acid], the IC50 came out at 6510 nM in experiment [1]; 1620 nM in experiment [2]; 80 nM in experiment [3] (pH 7, 37 °C); 2210 nM in experiment [4].
Regarding `COc1ccc(C(C)=O)cc1C(O)C(=O)N[C@H](C(=O)N[C@@H](CC(=O)O)C(=O)CSCc1ccccc1)C(C)C` (stereo partly drawn) [(3S)-5-(benzylsulfanyl)-3-[(2S)-2-[2-(5-acetyl-2-methoxyphenyl)-2-hydroxyacetamido]-3-methylbutanamido]-4-oxopentanoic acid], the IC50 in experiment [1] stood at 4850 nM; in experiment [2], 635 nM; in experiment [3] it was 16 nM; in experiment [4] it was 290 nM.
On to `COc1ccc(Br)cc1[C@H](C)C(=O)N[C@H](C(=O)N[C@@H](CC(=O)O)C(=O)CSCc1ccccc1)C(C)C` [(3S)-5-(benzylsulfanyl)-3-[(2S)-2-[(2S)-2-(5-bromo-2-methoxyphenyl)propanamido]-3-methylbutanamido]-4-oxopentanoic acid], for which the IC50 in experiment [1] was more than 10000 nM; in experiment [2] it was 5380 nM; in experiment [3] (pH 7, 37 °C), 176 nM; in experiment [4], 3690 nM.
In the same order, the values of `COc1ccc(Br)cc1C1(C(=O)N[C@H](C(=O)N[C@@H](CC(=O)O)C(=O)CSCc2ccccc2)C(C)C)CC1` [(3S)-5-(benzylsulfanyl)-3-[(2S)-2-{[1-(5-bromo-2-methoxyphenyl)cyclopropyl]formamido}-3-methylbutanamido]-4-oxopentanoic acid] are more than 10000 nM, more than 10000 nM, 323 nM and more than 10000 nM.
